Reference: DBAASP
Values after ≈ are worked out from the molar mass of the structure shown. Blank lines part the entries; values can stand above or below the compound they belong to.

Tests used:
Assay in all cases: ≥ marks a high value that may be exact or a test limit, other limits are often not marked, values filed in µg/mL are converted to µM
[1] = test system: Salmonella typhimurium KCTC 1926
[2] = test system: Pseudomonas aeruginosa KCTC 1637
[3] = test system: Bacillus subtilis KCTC 1918
[4] = test system: Staphylococcus aureus KCTC 1621
[5] = test system: Escherichia coli KCTC 1682
[6] = test system: Streptococcus pyogenes KCTC 3096
[7] = test system: Escherichia coli ATCC 25726
[8] = test system: Staphylococcus aureus ATCC 25923
[9] = test system: Batrachochytrium dendrobatidis JEL-197
[10] = test system: Staphylococcus aureus NCTC 8325
[11] = test system: Candida albicans ATCC 90028
[12] = test system: Escherichia coli ATCC 25922
[13] = test system: Bacillus subtilis 168
[14] = test system: Escherichia coli B
[15] = test system: Staphylococcus aureus
[16] = test system: Pseudomonas aeruginosa
[17] = test system: Candida albicans ATCC 10231
[18] = test system: Cryptococcus neoformans ATCC 32264
[19] = test system: Staphylococcus aureus IFO 12732
[20] = test system: Escherichia coli IFO 12734
[21] = test system: Pseudomonas aeruginosa IFO 12582
[22] = test system: Bacillus subtilis IFO 3134
[23] = test system: Cladosporium herbarum
[24] = test system: Pseudomonas syringae pv. syringae DSM 10604
[25] = test system: Xanthomonas vesicatoria DSM 50861
[26] = test system: Pseudomonas syringae pv. tomato DC3000
[27] = test system: Pseudomonas corrugata DSM 7228
[28] = test system: Alternaria alternata
[29] = test system: Botrytis cinerea
[30] = test system: Clavibacter michiganensis subsp. michiganensis DSM 46294
[31] = test system: Pectobacterium carotovorum subsp. carotovorum DSM 30168
[32] = test system: Escherichia coli NCTC 10418
[33] = test system: Candida albicans NCPF 1467
[34] = test system: Staphylococcus aureus NCTC 10788
[35] = test system: Micrococcus luteus ATCC 9341
[36] = test system: Pseudomonas aeruginosa ATCC 9027
[37] = test system: Staphylococcus aureus ATCC 6538
[38] = test system: Fusarium solani

MIC [1]: 0.78 µM (≈ 1.7 µg/mL)
MIC [2]: 1.56 µM (≈ 3.4 µg/mL)
MIC [3]: 1.56 µM (≈ 3.4 µg/mL)
MIC [4]: 3.12 µM (≈ 6.8 µg/mL)
MIC [5]: 6.25 µM (≈ 13.6 µg/mL)
MIC [6]: 0.78 µM (≈ 1.7 µg/mL)
Structure (SMILES): CC[C@H](C)[C@H](NC(=O)[C@H](CCCCN)NC(=O)[C@H](CCCCN)NC(=O)[C@H](Cc1ccccc1)NC(=O)[C@H](CC(C)C)NC(=O)[C@H](CCCCN)NC(=O)[C@H](Cc1c[nH]c2ccccc12)NC(=O)[C@@H](N)CCCCN)C(=O)N[C@@H](CCCCN)C(=O)N[C@@H](Cc1ccccc1)C(=O)N[C@@H](CC(C)C)C(=O)N[C@@H](Cc1cnc[nH]1)C(=O)N[C@@H](CO)C(=O)N[C@@H](C)C(=O)N[C@@H](CCCCN)C(=O)N[C@@H](CCCCN)C(=O)N[C@@H](Cc1ccccc1)C(N)=O [KWKLFKKIKFLHSAKKF]

MIC [7]: 10 µM (≈ 33.2 µg/mL)
MIC [8]: 20 µM (≈ 66.4 µg/mL)
MIC [9]: ≥ 50 µM
Structure (SMILES): CC[C@H](C)[C@H](NC(=O)CN)C(=O)N[C@@H](CC(C)C)C(=O)N[C@@H](CO)C(=O)N[C@@H](CO)C(=O)N[C@@H](Cc1ccccc1)C(=O)N[C@@H](CCCCN)C(=O)N[C@@H](CC(=O)O)C(=O)N[C@H](C(=O)N[C@@H](C)C(=O)N[C@@H](CCCCN)C(=O)NCC(=O)N[C@H](C(=O)N[C@@H](C)C(=O)N[C@@H](CCCCN)C(=O)N[C@@H](CC(N)=O)C(=O)N[C@H](C(=O)N[C@@H](C)C(=O)N[C@@H](C)C(=O)N[C@@H](CCC(N)=O)C(=O)N[C@@H](CC(C)C)C(=O)N[C@@H](CC(C)C)C(=O)N[C@@H](CC(=O)O)C(=O)N[C@@H](CCCCN)C(=O)N[C@@H](CC(C)C)C(=O)N[C@@H](CCCCN)C(=O)N[C@H]1CSSC[C@@H](C(=O)O)NC(=O)CNC(=O)[C@H]([C@@H](C)O)NC(=O)[C@H]([C@@H](C)CC)NC(=O)[C@H](CCCCN)NC1=O)C(C)C)C(C)C)C(C)C [GILSSFKDVAKGVAKNVAAQLLDKLKCKITGC]

MIC [10]: 4 µM (≈ 10.3 µg/mL)
MIC [11]: 16 µM (≈ 41.2 µg/mL)
MIC [12]: 16 µM (≈ 41.2 µg/mL)
MIC [9]: 6.25 µM (≈ 16.1 µg/mL)
Structure (SMILES): CC[C@H](C)[C@H](NC(=O)[C@@H]1CCCN1C(=O)[C@H](CC(C)C)NC(=O)[C@@H](N)Cc1ccccc1)C(=O)N[C@@H](CC(C)C)C(=O)N[C@@H](C)C(=O)N[C@@H](CO)C(=O)N[C@@H](CC(C)C)C(=O)N[C@@H](C)C(=O)N[C@@H](C)C(=O)N[C@@H](CCCCN)C(=O)N[C@@H](CC(C)C)C(=O)NCC(=O)N1CCC[C@H]1C(=O)N[C@@H](CCCCN)C(=O)N[C@@H](CC(C)C)C(=O)N[C@@H](Cc1ccccc1)C(=O)N[C@H]1CSSC[C@@H](C(=O)O)NC(=O)[C@H](CCCCN)NC(=O)[C@H](CCCCN)NC(=O)[C@H]([C@@H](C)O)NC(=O)[C@H](C(C)C)NC(=O)[C@H](CC(C)C)NC1=O [FLPILASLAAKLGPKLFCLVTKKC]

MIC [13]: 1.2 µM (≈ 1.73 µg/mL)
MIC [14]: 2.7 µM (≈ 3.9 µg/mL)
MIC [15]: 6.3 µM (≈ 9.1 µg/mL)
MIC [16]: 13.8 µM (≈ 19.9 µg/mL)
Structure (SMILES): CC[C@H](C)[C@H](NC(=O)[C@H](CCCCN)NC(=O)[C@H](CCCCN)NC(=O)[C@H](CC(C)C)NC(=O)[C@H](CC(C)C)NC(=O)[C@H](CO)NC(=O)[C@H](CCSC)NC(=O)[C@H](Cc1c[nH]c2ccccc12)NC(=O)[C@H](CCCCN)NC(=O)CN)C(=O)N[C@@H](CC(C)C)C(=O)N[C@@H](CCCCN)C(N)=O [GKWMSLLKKILK]

MIC [17]: 200 µM (≈ 274 µg/mL)
MIC [18]: ≥ 200 µM
Structure (SMILES): NCCCC[C@H](NC(=O)[C@H](CCCCN)NC(=O)[C@H](Cc1c[nH]c2ccccc12)NC(=O)[C@H](CCCCN)NC(=O)[C@H](CCCN=C(N)N)NC(=O)[C@H](CCCN=C(N)N)NC(=O)[C@H](Cc1c[nH]c2ccccc12)NC(=O)[C@H](CCCCN)NC(=O)[C@@H](N)CCCN=C(N)N)C(N)=O [RKWRRKWKK]

MIC [19]: 8 µM (≈ 17.1 µg/mL)
MIC [20]: 16 µM (≈ 34.2 µg/mL)
MIC [21]: ≥ 32 µM
MIC [22]: 8 µM (≈ 17.1 µg/mL)
Structure (SMILES): CC[C@H](C)[C@H](NC(=O)[C@H](C)NC(=O)[C@@H]1CCCN1C(=O)[C@@H](NC(=O)[C@@H](NC(=O)[C@H](CCCCN)NC(=O)[C@H](C)NC(=O)[C@H](C)NC(=O)[C@@H](NC(=O)[C@H](CCCCN)NC(=O)[C@H](C)NC(=O)[C@H](CC(C)C)NC(=O)[C@@H](NC(=O)CNC(=O)[C@H](Cc1ccccc1)NC(=O)[C@H](CC(C)C)NC(=O)CN)C(C)C)C(C)C)C(C)C)C(C)C)C(=O)N[C@@H](C)C(=O)N[C@@H](CCC(=O)O)C(=O)N[C@@H](Cc1cnc[nH]1)C(=O)N[C@@H](Cc1ccccc1)C(N)=O [GLFGVLAKVAAKVVPAIAEHF]

MIC [23]: ≥ 72.9 µM
MIC [24]: 29.2 µM (≈ 40 µg/mL)
MIC [25]: 29.2 µM (≈ 40 µg/mL)
MIC [26]: 29.2 µM (≈ 40 µg/mL)
MIC [27]: 29.2 µM (≈ 40 µg/mL)
MIC [28]: ≥ 72.9 µM
MIC [29]: ≥ 72.9 µM
MIC [30]: 14.6 µM (≈ 20 µg/mL)
MIC [31]: 29.2 µM (≈ 40 µg/mL)
Structure (SMILES): CC[C@H](C)[C@H](NC(=O)[C@H](CC(C)C)NC(=O)[C@@H](N)CC(C)C)C(=O)N[C@@H](C)C(=O)N[C@@H](C)C(=O)N[C@@H](Cc1ccccc1)C(=O)N[C@@H](CCCCN)C(=O)N[C@@H](CCCCN)C(=O)N[C@@H](CC(C)C)C(=O)N[C@H](C(=O)N[C@@H](CCCCN)C(=O)N[C@@H](CCCCN)C(N)=O)C(C)C [LLIAAFKKLVKK]

MIC [32]: ≥ 200 µM
MIC [33]: 15 µM (≈ 30 µg/mL)
MIC [34]: 5 µM (≈ 10 µg/mL)
Structure (SMILES): CC[C@H](C)[C@H](NC(=O)CNC(=O)[C@H](CO)NC(=O)[C@H](C)NC(=O)[C@@H](NC(=O)[C@H](Cc1cnc[nH]1)NC(=O)[C@@H]1CCCN1C(=O)[C@H](CC(C)C)NC(=O)[C@H](CC(C)C)NC(=O)[C@H](CO)NC(=O)[C@H](CC(C)C)NC(=O)[C@@H](N)Cc1ccccc1)[C@@H](C)CC)C(=O)N[C@@H](C)C(=O)N[C@@H](CO)C(=O)N[C@@H](CC(C)C)C(=O)N[C@H](C(=O)N[C@@H](CO)C(=O)N[C@@H](CCCCN)C(=O)N[C@@H](Cc1ccccc1)C(N)=O)C(C)C [FLSLLPHIASGIASLVSKF]

MIC [23]: ≥ 33.6 µM
MIC [24]: ≥ 33.6 µM
MIC [25]: 1.05 µM (≈ 2 µg/mL)
MIC [26]: ≥ 33.6 µM
MIC [35]: 1.6 µM (≈ 3.05 µg/mL)
MIC [27]: ≥ 33.6 µM
MIC [28]: 16.8 µM (≈ 32 µg/mL)
MIC [29]: 16.8 µM (≈ 32 µg/mL)
MIC [30]: 0.524 µM (≈ 1 µg/mL)
MIC [36]: > 105 µM
MIC [31]: ≥ 33.6 µM
MIC [37]: 5.24 µM (≈ 10 µg/mL)
MIC [38]: 4.19 µM (≈ 8 µg/mL)
Structure (SMILES): CC[C@H](C)[C@H](N)C(=O)N[C@@H](CC(C)C)C(=O)N1CCC[C@H]1C(=O)N[C@@H](Cc1c[nH]c2ccccc12)C(=O)N[C@@H](CCCCN)C(=O)N[C@@H](Cc1c[nH]c2ccccc12)C(=O)N1CCC[C@H]1C(=O)N[C@@H](Cc1c[nH]c2ccccc12)C(=O)N[C@@H](Cc1c[nH]c2ccccc12)C(=O)N1CCC[C@H]1C(=O)N[C@@H](Cc1c[nH]c2ccccc12)C(=O)N[C@@H](CCCNC(=N)N)C(=O)N[C@@H](CCCNC(=N)N)C(=O)O [ILPWKWPWWPWRR]
